Experimental data as given in publication PMC6694155, “PTPσ inhibitors promote hematopoietic stem cell regeneration” (Nature Communications, 2019).
“And” between values parts separate entries of the source, which are not always exact repeats. Equal values may be shown once. “Also recorded” adds a separate entry of the source.

Key:
human CD34+CD38− cells = assay: BCL2L1 and MCL-1 gene expression in irradiated human CD34+CD38− cells (qPCR); format: cell-based
Text: For all studies, RNA was isolated using the Qiagen RNeasy micro kit (Qiagen). RNA was reverse transcribed using the High-Capacity cDNA Reverse Transcription Kit (ThermoFisher Scientific) and was then used for quantitative PCR with SYBR Select Master Mix (Life Technologies). Values were normalized to housekeeping gene Gapdh/GAPDH and given as ΔΔCt values normalized to media-treated, non-irradiated BM KSL cells (2(−ΔΔC(T)) method)[67].

BM KSL cells = assay: Cell cycle analysis (Ki67/7AAD) of BM KSL cells; format: cell-based, mouse; settings: non-irradiated BM KSL cells, 36 hours
PTPσ [1] = target: T1, PTPσ (Mus musculus, UniProt B0V2N1); assay: Substrate titration of PTPσ (Km, Vmax, mechanism of inhibition); format: biochemical
T1 sequence (B0V2N1 1326-1907): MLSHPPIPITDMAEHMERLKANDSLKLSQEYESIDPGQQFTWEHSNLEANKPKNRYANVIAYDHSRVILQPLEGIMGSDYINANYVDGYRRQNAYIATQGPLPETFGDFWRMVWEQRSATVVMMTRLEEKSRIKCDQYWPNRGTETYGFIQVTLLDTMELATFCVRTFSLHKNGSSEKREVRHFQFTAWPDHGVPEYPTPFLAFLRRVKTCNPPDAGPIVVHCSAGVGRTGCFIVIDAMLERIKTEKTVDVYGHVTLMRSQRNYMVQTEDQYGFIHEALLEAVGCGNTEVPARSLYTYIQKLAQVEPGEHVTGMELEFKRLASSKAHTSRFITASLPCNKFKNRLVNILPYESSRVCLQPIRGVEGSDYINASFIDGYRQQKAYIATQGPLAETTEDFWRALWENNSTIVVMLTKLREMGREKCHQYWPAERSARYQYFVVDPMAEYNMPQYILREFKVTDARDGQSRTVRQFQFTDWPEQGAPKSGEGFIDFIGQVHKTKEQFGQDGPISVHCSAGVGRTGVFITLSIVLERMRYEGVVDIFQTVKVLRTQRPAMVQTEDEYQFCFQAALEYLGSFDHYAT
Experimental: (§1) The two intracellular catalytic domains (D1 and D2) of Ptprs were cloned into a pET28a vector, overexpressed in Escherichia coli BL21 and purified. Enzymatic activity of PTPσ was assayed using a modified version of the Malachite Green Assay[66] and the Tyrosine Phosphatase Assay Kit (Promega Corporation). Unless stated otherwise, standard assays were carried out using 50 nM PTPσ protein in 1× Buffer (10 mM Tris, 5 mM MgCl2, 10 mM NaCl, 0.02% Tween) and Tyr Phosphopeptide as substrate (200 μM for Fig. 1b, c, 50–1200 μM in Fig. 1c). Purified catalytic domain 1 and domain 2 of PTPσ were pre-incubated with test compounds 3071, 5205, 5075, or control for 15 min in a 96-well plate before the addition of Tyr Phosphopeptide (DADE(pY)LIPQQG). For IC50 determination, rates normalized relative to uninhibited controls (dimethyl sulfoxide (DMSO)) were plotted against compound concentration and fitted using a four-parameter nonlinear regression curve fit ((y = [(A − D) (1 + {xC − 1}B) − 1] + D) (Prism 6.0, Graphpad Software). For mechanism studies and determination of the enyzme’s Km and Vmax, data were analyzed using a nonlinear regression fit according to the classical Michaelis–Menten kinetics model, Y = Vmax*X/(Km + X) (Prism 6.0, Graphpad Software).

PTPσ [2] = target: T1, PTPσ; assay: PTPσ enzymatic assay (modified Malachite Green / Tyrosine Phosphatase Assay Kit); format: biochemical; settings: for PTPσ inhibitory activity (in words): direct PTPσ enzymatic assay; for Supplementary Figure 5b: PTPσ enzymatic assay signal: replicates
Experimental: as §1

[3] = system: progeny of irradiated human BM CD34+ cells in NSG mice; assay: Human BM transplantation assay in NSG mice; format: in vivo
Experimental: Human BM mononuclear cells were purchased from AllCells. Cryopreserved human BM cells were recovered in IMDM + 10% FBS + 1% penicillin–streptomycin and then positively selected for CD34^+ stem/progenitor cells by using CD34 MicroBead Kit (Miltenyi Biotec, #130-046-702, 1:5). CD34^+ cells were cultured in human TSF media (IMDM, 10%FBS, 1% pen-strep, 20 ng/mL recombinant human TPO, 125 ng/mL recombinant human SCF, 50 ng/mL recombinant human Flt3 ligand (R&D Systems). The progeny of 2 × 10^5 irradiated, human BM CD34^+ cultured for 36 h and treated with DJ001 at 5 μg/mL, were transplanted via tail vein injection into 10–12-week-old NSG mice preconditioned with 275 cGy TBI. Multilineage donor hematopoietic cell engraftment was monitored in the PB and BM by flow cytometry. The PB or BM cells were stained with BV605-conjugated anti-mouse CD45 (BioLegend, #103139, 1:100), AF647-conjugated anti-human CD34 (BioLegend, #343618, 1:100), FITC-conjugated anti-human CD33 (BD Biosciences, #555626, 1:100), V450-conjugated anti-human CD45 (BD Biosciences, #560368, 1:100), APC-conjugated anti-human CD3 (BD Biosciences, #555342, 1:100), and APC-Cy7-conjugated anti-human CD19 (BD Biosciences, #557791, 1:100) antibodies.

[4] = irradiated human CD34+CD38− cells, qPCR, replicates
[5] = progeny of irradiated human BM CD34+ cells, individual mice, in % (unit assumed)

Structure (SMILES): O=C(/C=C\Nc1cccc([N+](=O)[O-])c1)c1ccccc1 [DJ001, (Z)-3-((3-nitrophenyl)amino)-1-phenylprop-2-en-1-one]
- expression of BCL2L1 and MCL-1 (human CD34+CD38− cells; irradiated human CD34+ cells, 12 h after 300 cGy): increased the expression
- Figure 5d: gene expression, BCL-XL (human CD34+CD38− cells; [4]): 7.91 and 7.15 and 7.38
- Figure 5d: gene expression, MCL1 (human CD34+CD38− cells; [4]): 3.75 and 3.41 and 4.98
- cell cycle status (BM KSL cells): did not alter the cell cycle status
- substrate titration source data, rate per replicate (PTPσ [1]; 25M DJ001, Substrate 50 uM): 9
- substrate titration source data, rate per replicate (PTPσ [1]; 25M DJ001, Substrate 50 uM, 25 µM DJ001): 12.3
- substrate titration source data, rate per replicate (PTPσ [1]; 25M DJ001, Substrate 100 uM): 13.4
- substrate titration source data, rate per replicate (PTPσ [1]; 25M DJ001, Substrate 100 uM, 25 µM DJ001): 16.2
- substrate titration source data, rate per replicate (PTPσ [1]; 25M DJ001, Substrate 200 uM): 26.7
- substrate titration source data, rate per replicate (PTPσ [1]; 25M DJ001, Substrate 200 uM, 25 µM DJ001): 26
- substrate titration source data, rate per replicate (PTPσ [1]; 25M DJ001, Substrate 400 uM): 42.9
- substrate titration source data, rate per replicate (PTPσ [1]; 25M DJ001, Substrate 400 uM, 25 µM DJ001): 40.9
- substrate titration source data, rate per replicate (PTPσ [1]; 25M DJ001, Substrate 800 uM): 54.8
- substrate titration source data, rate per replicate (PTPσ [1]; 25M DJ001, Substrate 800 uM, 25 µM DJ001): 50.4
- substrate titration source data, rate per replicate (PTPσ [1]; 25M DJ001, Substrate 1200 uM): 57.8
- substrate titration source data, rate per replicate (PTPσ [1]; 25M DJ001, Substrate 1200 uM, 25 µM DJ001): 55.4
- substrate titration source data, rate per replicate (PTPσ [1]; 50M DJ001, Substrate 50 uM, 50 µM DJ001): 7.7 and 8
- substrate titration source data, rate per replicate (PTPσ [1]; 50M DJ001, Substrate 100 uM, 50 µM DJ001): 9.1 and 9.9
- substrate titration source data, rate per replicate (PTPσ [1]; 50M DJ001, Substrate 200 uM, 50 µM DJ001): 14.1 and 15.3
- substrate titration source data, rate per replicate (PTPσ [1]; 50M DJ001, Substrate 400 uM, 50 µM DJ001): 23.2 and 23.4
- substrate titration source data, rate per replicate (PTPσ [1]; 50M DJ001, Substrate 800 uM, 50 µM DJ001): 28.7 and 27
- substrate titration source data, rate per replicate (PTPσ [1]; 50M DJ001, Substrate 1200 uM, 50 µM DJ001): 34.7 and 35
- substrate titration source data, rate per replicate (PTPσ [1]; 100M DJ001, Substrate 50 uM): 7.7 and 7.4
- substrate titration source data, rate per replicate (PTPσ [1]; 100M DJ001, Substrate 100 uM): 7.7
- substrate titration source data, rate per replicate (PTPσ [1]; 100M DJ001, Substrate 200 uM): 8.9
- substrate titration source data, rate per replicate (PTPσ [1]; 100M DJ001, Substrate 400 uM): 13.4 and 13.9
- substrate titration source data, rate per replicate (PTPσ [1]; 100M DJ001, Substrate 800 uM): 17.3 and 16.7
- substrate titration source data, rate per replicate (PTPσ [1]; 100M DJ001, Substrate 1200 uM): 25.5 and 23.8
- mechanism of PTPσ inhibition (PTPσ [1]; substrate titration, inhibits Vmax, constant Km): non-competitive inhibitor
- PTPσ inhibitory activity (in words) (PTPσ [2]): confirmed the inhibitory effect
- PTPσ inhibitory activity (in words) (PTPσ [2]; listed as 5483071): strong inhibitory activity
- engraftment of human CD45+ cells, CD19+ B cells, CD33+ myeloid cells, and CD3+ T cells vs control ([3]; NSG mice, 12 weeks post transplant): several – fold increased multilineage engraftment; also recorded: substantially increased engraftment
- Figure 5g (center left panel): human engraftment in NSG mice [3, 5]: 0.66 and 2.13 and 0.13 and 1.76 and 1.28 and 0.22 and 0.24 and 0.04 and 0.73 and 2.53 and 0.35
- Figure 5g (center panel): human engraftment in NSG mice [3, 5]: 2.25 and 0.8 and 0.17 and 0.56 and 4.4 and 0.31 and 5 and 1.4 and 1.23 and 5.34 and 6.53
- Figure 5g (center right panel): human engraftment in NSG mice [3, 5]: 0.24 and 0.34 and 1.91 and 0.16 and 0.67 and 0.92 and 0.14 and 0.94 and 0.48 and 4.07 and 1.41 and 1.1
- Figure 5g (left panel): human engraftment in NSG mice [3, 5]: 4.16 and 2.8 and 0.36 and 1.45 and 9.56 and 0.9 and 12.2 and 3.82 and 4.68 and 14.9 and 12.5
- Figure 5g (right panel): human engraftment in NSG mice [3, 5]: 0.25 and 1.48 and 0.96 and 0.1 and 0.49 and 1.86 and 0.23 and 1.47 and 1.13 and 2 and 5.49 and 5.38

Structure (SMILES): O=C(/C=C\Nc1cc(F)cc(F)c1)c1ccccc1 [DJ009, (Z)-3-((3,5-difluorophenyl)amino)-1-phenylprop-2-en-1-one]
- PTPσ inhibitory activity (in words) (PTPσ [2]): strongly inhibited PTPσ activity; also recorded: strong PTPσ inhibitory
- Supplementary Figure 5b: PTPσ enzymatic assay signal (PTPσ [2]; inhibitor 0.0122 uM): 0.21 and 0.203 (2×)
- Supplementary Figure 5b: PTPσ enzymatic assay signal (PTPσ [2]; inhibitor 0.049 uM): 0.201 and 0.209 and 0.211
- Supplementary Figure 5b: PTPσ enzymatic assay signal (PTPσ [2]; inhibitor 0.09 uM): 0.199 and 0.194 and 0.195
- Supplementary Figure 5b: PTPσ enzymatic assay signal (PTPσ [2]; inhibitor 0.19 uM): 0.178 and 0.174 and 0.176
- Supplementary Figure 5b: PTPσ enzymatic assay signal (PTPσ [2]; inhibitor 0.39 uM): 0.161 and 0.165 and 0.164
- Supplementary Figure 5b: PTPσ enzymatic assay signal (PTPσ [2]; inhibitor 0.78 uM): 0.162 and 0.166 and 0.165
- Supplementary Figure 5b: PTPσ enzymatic assay signal (PTPσ [2]; inhibitor 1.56 uM): 0.16 and 0.163 and 0.158
- Supplementary Figure 5b: PTPσ enzymatic assay signal (PTPσ [2]; inhibitor 3.125 uM): 0.154 and 0.159 and 0.16
- Supplementary Figure 5b: PTPσ enzymatic assay signal (PTPσ [2]; inhibitor 6.25 uM): 0.157 and 0.162 and 0.156
